Entries after “also recorded” stand apart in the source; their conditions may differ.
How the values were obtained:
[1] = cited from earlier work
[2] = cited from earlier work; remark: listed apart in the source
[3] = system: patients with primary periodic paralysis; test: Phase III double-blind plus open-label extension study: cognition-related adverse events during dichlorphenamide treatment; assay type: in vivo, human
Protocol: Data were analyzed from a 9-week Phase III, randomized, double-blind, placebo-controlled phase and a 52-week open-label extension phase. The trial included two substudies: one in adults with hyperkalemic periodic paralysis and one in adults with hypokalemic periodic paralysis. The substudy data were pooled. Medical Dictionary for Regulatory Activities high-level group terms of deliria (including confusion) and mental impairment disorders were pooled for cognition-related events. Kaplan-Meier methods were used to estimate the percentages of patients with no occurrence of the adverse event over time.
Dose reductions were allowed for intolerable adverse events. […] Adverse events reported during dichlorphenamide exposure were summarized by double-blind treatment/open label treatment (placebo/dichlorphenamide or dichlorphenamide/dichlorphenamide) group.
The age range was 19 to 76 years.

[4] = n = 63, cognition-related adverse events
[5] = n = 63, considered by investigators at least possibly related to study drug
[6] = n = 63, listed as dichlorphenamide

For `NS(=O)(=O)c1cc(Cl)c(Cl)c(S(N)(=O)=O)c1` [Dichlorphenamide, 4,5-dichloro-1,3-benzenedisulfonamide], the “Solubility in dilute solutions of sodium carbonate and sodium hydroxide” value ([1]; dilute sodium carbonate and sodium hydroxide solutions) is given as “soluble”, the Solubility in water ([1]; water) is given as “very slightly soluble” and the “Stability of dilute alkaline solutions” value ([2]; room temperature) is given as “stable”. The Storage stability ([2]; storage) was “at least 36 months”, the “Intensity of cognition-related adverse events (in words)” value ([3]; 61-week study) was “Most cognition-related adverse events were mild in intensity; also recorded: mild or moderate in intensity” and the “Discontinuation due to cognition-related adverse event, patients %” value ([3]; n = 63) was “(6.3) %”. The “Discontinuation due to cognition-related adverse event, patients n” value ([3]; n = 63) was 4 patients, the “Resolution of last cognition-related adverse event: Resolved, patients %” value ([3]; n = 63) was “(17.5) %” and the “Resolution of last cognition-related adverse event: Resolved, patients n” value ([3]; n = 63) was 11 patients. For the same molecule, the “Resolution of last cognition-related adverse event: Under treatment/observation, patients %” value ([3]; n = 63) was “(7.9) %”, the “Resolution of last cognition-related adverse event: Under treatment/observation, patients n” value ([3]; n = 63) was 5 patients and the “Any cognition-related adverse event, patients %” value ([3]; n = 63, 61-week study duration) was “(25.4) %”. For the same molecule, the “Any cognition-related adverse event, patients n” value ([3]; n = 63, 61-week study duration, pooled hyper/hypokalemic periodic paralysis) was 16 patients, the “Any cognition-related adverse event, patients %” value ([3]; n = 63, 61-week study duration, listed as dichlorphenamide) was 25.4% and the “Adverse event intensity: Mild, patients %” value [3, 4] was “(14.3) %”. The “Adverse event intensity: Mild, patients n” value [3, 4] was 9 patients, the “Adverse event intensity: Moderate, patients %” value [3, 4] was “(7.9) %” and the “Adverse event intensity: Moderate, patients n” value [3, 4] was 5 patients. The “Adverse event intensity: Severe, patients %” value [3, 4] was “(3.2) %”, the “Adverse event intensity: Severe, patients n” value [3, 4] was 2 patients and the “Any drug-related cognition-related adverse event, patients %” value [3, 5] was “(25.4) %”. For the same molecule, the “Any drug-related cognition-related adverse event, patients n” value [3, 5] was 16 patients, the “Discontinuation due to cognition-related adverse event, patients %” value [3, 6] was 6.3% and the “Discontinuation due to cognition-related adverse event, patients n” value [3, 6] was “Four”. For the same molecule, the “Patients with cognition-related adverse event who had the dose of dichlorphenamide reduced, %” value ([3]; of 16 patients with cognition-related adverse event) was 37.5%, the “Outcome of cognition-related adverse event after dose reduction” value ([3]; six patients with reduced dose) was “resolved in all six cases; also recorded: Reduced doses frequently resolved these adverse events” and the “Onset of cognition-related adverse events” value ([3]; time from start of dichlorphenamide treatment) was “during the first four weeks; also recorded: within the first month of therapy”.
